Measured values: ChEMBL document CHEMBL4052829, “Identification of a Novel Hybridization from Isosorbide 5-Mononitrate and Bardoxolone Methyl with Dual Activities of Pulmonary Vasodilation and Vascular Remodeling Inhibition on Pulmonary Arterial Hypertension Rats” (J Med Chem, 2018)
The source made the active and inactive calls. No cut-off for these calls is given here.

How the values were obtained:
Rattus norvegicus [1] = assay: Pulmonary vasodilatory effect in MCT-induced Sprague-Dawley rat pulmonary arterial hypertension model assessed as right ventricular systolic pressure at 0.78 ug/kg, inhaled daily for 28 days by polygraph method (reference value: 56.09 +/- 3.24 mmHg); type: functional
Rattus norvegicus [2] = assay: Pulmonary vasodilatory effect in MCT-induced Sprague-Dawley rat pulmonary arterial hypertension model assessed as mean pulmonary artery pressure at 0.78 ug/kg, inhaled daily for 28 days co-administered with CDDO-Me by polygraph method (reference value: 30.63 +/- 1.16 mmHg); type: functional
Rattus norvegicus [3] = assay: Pulmonary vasodilatory effect in MCT-induced Sprague-Dawley rat pulmonary arterial hypertension model assessed as right ventricular systolic pressure at 0.78 ug/kg, inhaled daily for 28 days co-administered with CDDO-Me by polygraph method (reference value: 56.09 +/- 3.24 mmHg); type: functional
Rattus norvegicus [4] = assay: Pulmonary vasodilatory effect in MCT-induced Sprague-Dawley rat pulmonary arterial hypertension model assessed as mean pulmonary artery pressure at 0.78 ug/kg, inhaled daily for 28 days by polygraph method (reference value: 30.63 +/- 1.16 mmHg); type: functional
Rattus norvegicus [5] = assay: Pulmonary vasodilatory effect in MCT-induced Sprague-Dawley rat pulmonary arterial hypertension model assessed as weight ratio of right ventricle to left ventricle and septum at 0.78 ug/kg, inhaled daily for 28 days (reference value: 0.4796 +/- 0.030); type: functional
Rattus norvegicus [6] = assay: Pulmonary vasodilatory effect in MCT-induced Sprague-Dawley rat pulmonary arterial hypertension model assessed as weight ratio of right ventricle to left ventricle and septum at 0.78 ug/kg, inhaled daily for 28 days co-administered with CDDO-Me (reference value: 0.4796 +/- 0.030); type: functional
Rattus norvegicus [7] = assay: Pulmonary vasodilatory effect in MCT-induced Sprague-Dawley rat pulmonary arterial hypertension model assessed as mean pulmonary artery pressure at 2.1 ug/kg, inhaled daily for 28 days co-administered with ISMN by polygraph method (reference value: 30.63 +/- 1.16 mmHg); type: functional
Rattus norvegicus [8] = assay: Pulmonary vasodilatory effect in MCT-induced Sprague-Dawley rat pulmonary arterial hypertension model assessed as weight ratio of right ventricle to left ventricle and septum at 2.1 ug/kg, inhaled daily for 28 days (reference value: 0.4796 +/- 0.030); type: functional
Rattus norvegicus [9] = assay: Pulmonary vasodilatory effect in MCT-induced Sprague-Dawley rat pulmonary arterial hypertension model assessed as right ventricular systolic pressure at 2.1 ug/kg, inhaled daily for 28 days by polygraph method (reference value: 56.09 +/- 3.24 mmHg); type: functional
Rattus norvegicus [10] = assay: Pulmonary vasodilatory effect in MCT-induced Sprague-Dawley rat pulmonary arterial hypertension model assessed as weight ratio of right ventricle to left ventricle and septum at 2.1 ug/kg, inhaled daily for 28 days co-administered with ISMN (reference value: 0.4796 +/- 0.030); type: functional
[11] = Drug uptake in Sprague-Dawley rat lung at 1 mg/ml administered in trachea after 60 mins by LC-MS/MS analysis; type: ADME, tissue-based; conditions: inhaled or intranasal, read-out: Drug uptake
Lung [12] = assay: (§1) Drug uptake in Sprague-Dawley rat lung at 1 mg/ml administered in trachea after 180 mins by LC-MS/MS analysis; type: ADME; conditions: in vivo, inhaled_or_intranasal, 3 h, BLD = below limit of detection
[13] = as §1; type: ADME; conditions: Sprague-Dawley, lung, inhaled or intranasal, 1 mg/ml, read-out: Drug uptake
Plasma [14] = assay: Drug level in Sprague-Dawley rat plasma treated with CDDO-NO at 1 mg/ml administered in trachea after 15 to 720 mins by LC-MS/MS analysis; type: ADME, cell-free; conditions: inhaled_or_intranasal
Rattus norvegicus [15] = assay: Pulmonary vasodilatory effect in MCT-induced Sprague-Dawley rat pulmonary arterial hypertension model assessed as right ventricular systolic pressure at 2.1 ug/kg, inhaled daily for 28 days co-administered with ISMN by polygraph method (reference value: 56.09 +/- 3.24 mmHg); type: functional
Rattus norvegicus [16] = assay: Pulmonary vasodilatory effect in MCT-induced Sprague-Dawley rat pulmonary arterial hypertension model assessed as mean pulmonary artery pressure at 2.1 ug/kg, inhaled daily for 28 days by polygraph method (reference value: 30.63 +/- 1.16 mmHg); type: functional
[17] = Drug uptake in Sprague-Dawley rat lung at 1 mg/ml administered in trachea after 360 mins by LC-MS/MS analysis; type: ADME, tissue-based; conditions: inhaled or intranasal, read-out: Drug uptake
Lung [18] = assay: Drug level in Sprague-Dawley rat lung treated with CDDO-NO at 1 mg/ml administered in trachea after 90 to 720 mins by LC-MS/MS analysis; type: ADME, tissue-based; conditions: in vivo, inhaled_or_intranasal
Rattus norvegicus [19] = assay: Inhibition of vascular remodeling in MCT-induced Sprague-Dawley rat pulmonary arterial hypertension model assessed as decrease in MCT-induced perivascular fibrosis at 3 ug/kg, inhaled daily for 28 days by masson's trichrome staining-based assay; type: functional
Rattus norvegicus [20] = assay: Pulmonary vasodilatory effect in MCT-induced Sprague-Dawley rat pulmonary arterial hypertension model assessed as mean pulmonary artery pressure at 3 ug/kg, inhaled daily for 28 days by polygraph method (reference value: 30.63 +/- 1.16 mmHg); type: functional
Rattus norvegicus [21] = assay: Pulmonary vasodilatory effect in MCT-induced Sprague-Dawley rat pulmonary arterial hypertension model assessed as right ventricular systolic pressure at 3 ug/kg, inhaled daily for 28 days by polygraph method (reference value: 56.09 +/- 3.24 mmHg); type: functional
Rattus norvegicus [22] = assay: Inhibition of vascular remodeling in MCT-induced Sprague-Dawley rat pulmonary arterial hypertension model assessed as decrease in MCT-induced increment of PCNA positive cells in lung at 3 ug/kg, inhaled daily for 28 days by immunohistochemical method; type: functional
Rattus norvegicus [23] = assay: Pulmonary vasodilatory effect in MCT-induced Sprague-Dawley rat pulmonary arterial hypertension model assessed as weight ratio of right ventricle to left ventricle and septum at 3 ug/kg, inhaled daily for 28 days (reference value: 0.4796 +/- 0.030); type: functional
[24] = biological target: T1, Nuclear factor erythroid 2-related factor 2 (Rattus norvegicus) (UniProt O54968); assay: Induction of Nrf2 translocation to nucleus of rat pulmonary artery endothelial cells at 1 uM after 24 hrs by immunofluorescence assay
T1 sequence (whole entry): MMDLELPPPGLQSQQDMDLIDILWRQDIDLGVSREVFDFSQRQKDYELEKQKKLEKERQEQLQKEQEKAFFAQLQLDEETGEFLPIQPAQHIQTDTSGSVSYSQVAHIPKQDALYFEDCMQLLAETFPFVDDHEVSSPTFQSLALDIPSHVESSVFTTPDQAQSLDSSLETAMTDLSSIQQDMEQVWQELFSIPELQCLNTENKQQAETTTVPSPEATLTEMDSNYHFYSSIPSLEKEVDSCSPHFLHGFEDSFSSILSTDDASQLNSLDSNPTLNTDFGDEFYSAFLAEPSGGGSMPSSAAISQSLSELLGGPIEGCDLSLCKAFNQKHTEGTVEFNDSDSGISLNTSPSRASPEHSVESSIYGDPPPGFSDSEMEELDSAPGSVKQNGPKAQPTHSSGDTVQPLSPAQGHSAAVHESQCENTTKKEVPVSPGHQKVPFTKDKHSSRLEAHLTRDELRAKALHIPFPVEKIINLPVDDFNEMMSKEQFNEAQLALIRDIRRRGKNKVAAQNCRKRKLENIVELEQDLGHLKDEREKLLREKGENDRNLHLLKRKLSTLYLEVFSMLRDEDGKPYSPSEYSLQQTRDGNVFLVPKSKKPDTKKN

Lung [25] = assay: Drug metabolism in Sprague-Dawley rat lung assessed as formation of CDDO-Me at 1 mg/ml administered in trachea after 90 mins by LC-MS/MS analysis; type: ADME, tissue-based; conditions: in vivo, inhaled_or_intranasal, 1.5 h
Plasma [26] = assay: Drug metabolism in Sprague-Dawley rat plasma assessed as formation of CDDO-Me at 1 mg/ml administered in trachea after 15 to 720 mins by LC-MS/MS analysis; type: ADME, cell-free; conditions: inhaled_or_intranasal
Lung [27] = assay: Drug metabolism in Sprague-Dawley rat lung assessed as formation of CDDO-Me at 1 mg/ml administered in trachea after 12 hrs by LC-MS/MS analysis; type: ADME, tissue-based; conditions: in vivo, inhaled_or_intranasal
Rattus norvegicus [28] = assay: Inhibition of vascular remodeling in MCT-induced Sprague-Dawley rat pulmonary arterial hypertension model assessed as downregulation of MCT-induced up-expression of alpha-SMA at 3 ug/kg, inhaled daily for 28 days by Western blot method; type: functional
Rattus norvegicus [29] = assay: Inhibition of vascular remodeling in MCT-induced Sprague-Dawley rat pulmonary arterial hypertension model assessed as decrease in MCT-induced macrophage infiltration in perivascular tissue at 3 ug/kg, inhaled daily for 28 days by immunohistochemical method; type: functional
Rattus norvegicus [30] = assay: Inhibition of vascular remodeling in MCT-induced Sprague-Dawley rat pulmonary arterial hypertension model assessed as decrease in MCT-induced collagen-1 expression in lung at 3 ug/kg, inhaled daily for 28 days by Western blot method; type: functional
Rattus norvegicus [31] = assay: Inhibition of vascular remodeling in MCT-induced Sprague-Dawley rat pulmonary arterial hypertension model assessed as reduction of MCT-induced pulmonary vascular muscularization by measuring downregulation of alpha-SMA levels at 3 ug/kg, inhaled daily for 28 days by immunohistochemical method; type: functional
Rattus norvegicus [32] = assay: Pulmonary vasodilatory effect in MCT-induced Sprague-Dawley rat pulmonary arterial hypertension model assessed as reversal of MCT-induced ET-1 elevation in plasma at 3 ug/kg, inhaled daily for 28 days by ELISA; type: functional
Rattus norvegicus [33] = assay: Inhibition of oxidative response in lung of MCT-induced Sprague-Dawley rat pulmonary arterial hypertension model assessed as decrease in ratio of NOX4 positive cells and NOX4 expression at 3 ug/kg, inhaled daily for 28 days by immunohistochemical method; type: functional
Rattus norvegicus [34] = assay: Inhibition of vascular remodeling in MCT-induced Sprague-Dawley rat pulmonary arterial hypertension model assessed as reduction of MCT-induced medial thickness of pulmonary artery at 3 ug/kg, inhaled daily for 28 days by hematoxylin and eosin staining-based assay; type: functional
Rattus norvegicus [35] = assay: Pulmonary vasodilatory effect in MCT-induced Sprague-Dawley rat pulmonary arterial hypertension model assessed as reversal of MCT-induced nitric oxide reduction in plasma at 3 ug/kg, inhaled daily for 28 days by Griess assay; type: functional
Rattus norvegicus [36] = assay: Inhibition of cardiomyocyte hypertrophy in MCT-induced Sprague-Dawley rat pulmonary arterial hypertension model at 3 ug/kg, inhaled daily for 28 days by hematoxylin and eosin staining-based assay; type: functional
Rattus norvegicus [37] = assay: Inhibition of oxidative response in lung of MCT-induced Sprague-Dawley rat pulmonary arterial hypertension model assessed as decrease in ratio of NOX4 positive cells and NOX4 expression at 3 ug/kg, inhaled daily for 28 days by Western blot method; type: functional
Rattus norvegicus [38] = assay: Inhibition of cardiac fibrosis in MCT-induced Sprague-Dawley rat pulmonary arterial hypertension model at 3 ug/kg, inhaled daily for 28 days by picro-sirius red staining-based assay; type: functional
Rattus norvegicus [39] = assay: Inhibition of vascular remodeling in MCT-induced Sprague-Dawley rat pulmonary arterial hypertension model assessed as decrease in MCT-induced TGF-beta expression in lung at 3 ug/kg, inhaled daily for 28 days by Western blot method; type: functional

SMILES: O=[N+]([O-])O[C@@H]1CO[C@H]2[C@@H]1OC[C@H]2O
- Activity (Rattus norvegicus [1]): 60.76 mmHg
- Activity (Rattus norvegicus [2]): 27.3 mmHg
- Activity (Rattus norvegicus [3]): 60.12 mmHg
- Activity (Rattus norvegicus [4]): 25.11 mmHg
- Ratio (Rattus norvegicus [5]): 0.4844
- Ratio (Rattus norvegicus [6]): 0.4898

SMILES: COC(=O)[C@]12CCC(C)(C)C[C@H]1[C@H]1C(=O)C=C3[C@@]4(C)C=C(C#N)C(=O)C(C)(C)[C@@H]4CC[C@@]3(C)[C@]1(C)CC2 [BARDOXOLONE METHYL]
- Activity (Rattus norvegicus [7]): 27.3 mmHg
- Ratio (Rattus norvegicus [8]): 0.5123
- Activity (Rattus norvegicus [9]): 61.24 mmHg
- Ratio (Rattus norvegicus [10]): 0.4898
- concentration at 1 h [11]: 180 to 444 ng/mL
- Drug uptake (Lung [12]): Bld
- concentration at 3 h [13]: 44.8 ng/mL
- Drug metabolism (Plasma [14]): Metabolite_Detected
- Activity (Rattus norvegicus [15]): 60.12 mmHg
- Activity (Rattus norvegicus [16]): 26.29 mmHg
- concentration at 6 h [17]: 3.4 ng/mL
- Drug metabolism (Lung [18]): Metabolite_Detected

SMILES: COC(=O)[C@]12CCC(C)(C)C[C@H]1[C@H]1C(=O)C=C3[C@@]4(C)C(O[C@@H]5CO[C@H]6[C@@H]5OC[C@H]6O[N+](=O)[O-])C(C#N)=C(OC(C)=O)C(C)(C)[C@@H]4CC[C@@]3(C)[C@]1(C)CC2 (stereo not given in full)
- inhibition (Rattus norvegicus [19]): Active
- Activity (Rattus norvegicus [20]): 20.72 mmHg
- Activity (Rattus norvegicus [21]): 44.75 mmHg
- inhibition (Rattus norvegicus [22]): Active
- Ratio (Rattus norvegicus [23]): 0.3656
- Activity [24]: Active
- Drug metabolism (Lung [25]): 78.5 ng/mL
- Drug metabolism (Plasma [26]): Metabolite_Detected
- Drug metabolism (Lung [27]): 15.9 ng/mL
- concentration at 1 h [11]: 243 ng/mL
- inhibition (Rattus norvegicus [28]): Active
- inhibition (Rattus norvegicus [29]): Active
- inhibition (Rattus norvegicus [30]): Active
- inhibition (Rattus norvegicus [31]): Active
- Activity (Rattus norvegicus [32]): Active
- inhibition (Rattus norvegicus [33]): Active
- inhibition (Rattus norvegicus [34]): Active
- Activity (Rattus norvegicus [35]): Active
- inhibition (Rattus norvegicus [36]): Active
- inhibition (Rattus norvegicus [37]): Active
- inhibition (Rattus norvegicus [38]): Active
- inhibition (Rattus norvegicus [39]): Active
